Strand notation (5' to 3'): a small letter for the sugar, then the base; units joined by * are phosphorothioate-linked, units joined directly phosphodiester-linked; [ ] holds rarer units or linkages, { } end groups; capitals alone tell only the bases. e = 2'-O-(2-methoxyethyl) (MOE); k = constrained ethyl (cEt); [5mC] = 5-methylcytosine; d = 2'-deoxy (DNA)
How the values were obtained:
human PKK mRNA [1] = test: Antisense inhibition of human PKK mRNA in HepaRG cells, 1,000 nM, MOE/deoxy/cEt oligonucleotides (Example 3); type: cell-based
Method in brief: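 HepaRG cells at 20,000 per well electroporated with 1,000 nM 16-mer MOE/cEt/deoxy gapmers (phosphorothioate, 5-methylcytosine). After about 24 h, PKK mRNA measured by qRT-PCR with primer probe set RTS3454, normalized to RIBOGREEN total RNA. Reported as percent inhibition versus untreated cells.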

human PKK mRNA [2] = test: Dose-dependent antisense inhibition of human PKK in HepaRG cells, 0.11-3.00 uM (Example 6); type: cell-based; conditions: for IC50: 0.11-3.00 μM; for percent inhibition of PKK mRNA, 0.11 μM / percent inhibition of PKK mRNA, 0.33 μM / percent inhibition of PKK mRNA, 1.00 μM / percent inhibition of PKK mRNA, 3.00 μM: electroporation, approx. 16 hours, relative to untreated control cells
Method in brief: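 HepaRG cells were electroporated with antisense oligonucleotide at 0.11, 0.33, 1.00 or 3.00 μM. After about 16 h, PKK mRNA was quantified by qRT-PCR with primer probe set RTS3454 and normalized to total RNA by RIBOGREEN. IC50 was derived from the dose series.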

[3] = HepaRG cells, electroporation with 1,000 nM antisense oligonucleotide, approximately 24 hours, primer probe set RTS3454, relative to untreated control cells, experiment of Table 23
[4] = HepaRG cells, electroporation with 1,000 nM antisense oligonucleotide, approx. 24 hours, PKK mRNA by RT-PCR (RTS3454), relative to untreated control cells, Table 25 experiment
[5] = HepaRG cells, electroporation with 1,000 nM antisense oligonucleotide, approximately 24 hours, primer probe set RTS3454, relative to untreated control cells, experiment of Table 24
[6] = Table 30, human PKK mRNA, HepaRG cells, 1,000 nM antisense oligonucleotide
[7] = PKK mRNA, HepaRG cells, 1,000 nM antisense oligonucleotide, Table 31

Row | Substance | % inhibition (human PKK mRNA [1]; [3]) [%] | IC50 (human PKK mRNA [2]) [nM] | percent inhibition of PKK mRNA, 0.11 μM (human PKK mRNA [2]) [%] | percent inhibition of PKK mRNA, 0.33 μM (human PKK mRNA [2]) [%] | percent inhibition of PKK mRNA, 1.00 μM (human PKK mRNA [2]) [%] | percent inhibition of PKK mRNA, 3.00 μM (human PKK mRNA [2]) [%] | % inhibition (human PKK mRNA [1]; [4]) [%] | % inhibition (human PKK mRNA [1]; [5]) [%] | % inhibition (human PKK mRNA [1]; Table 19, HepaRG cells, electroporation with 1,000 nM antisense oligonucleotide, approximately 24 hours, PKK mRNA by RT-PCR (RTS3454), relative to untreated control cells) [%] | % inhibition (human PKK mRNA [1]; [6]) [%] | % inhibition (human PKK mRNA [1]; [7]) [%] | % inhibition (human PKK mRNA [1]; Table 20, HepaRG cells, electroporation with 1,000 nM antisense oligonucleotide, approximately 24 hours, PKK mRNA by RT-PCR (RTS3454), relative to untreated control cells) [%] | % inhibition (human PKK mRNA [1]; Table 22 experiment, HepaRG cells, electroporation with 1,000 nM antisense oligonucleotide, approx. 24 hours, PKK mRNA by RT-PCR (RTS3454), relative to untreated control cells) [%] | % inhibition (human PKK mRNA [1]; HepaRG cells, 1,000 nM antisense oligonucleotide, Table 29) [%]
1 | 547943 (eT*eG*kG*dT*dG*dT*dG*d[5mC]*d[5mC]*dA*d[5mC]*dT*dT*kT*k[5mC]*eA; antisense) [compound 547943] | 83 | 200 | 33 | 70 | 87 | 90 |  |  |  |  |  |  |  | 
2 | 548197 (eT*eG*k[5mC]*dT*dT*dG*dG*d[5mC]*dT*dT*d[5mC]*dA*dA*kT*kA*eT; antisense) [compound 548197] |  | 800 | 33 | 37 | 51 | 75 | 68 |  |  |  |  |  |  | 
3 | 548195 (eT*eT*k[5mC]*dT*dG*d[5mC]*d[5mC]*dA*dA*d[5mC]*dA*dG*dT*kT*kT*e[5mC]; antisense) [compound 548195] |  | 800 | 5 | 23 | 61 | 76 | 84 |  |  |  |  |  |  | 
4 | 548024 (eG*e[5mC]*kT*dG*dT*d[5mC]*dA*dG*d[5mC]*dT*dT*d[5mC]*dA*k[5mC]*k[5mC]*eT; antisense) [compound 548024] |  | 300 | 28 | 57 | 84 | 82 |  | 79 |  |  |  |  |  | 
5 | 548128 (eA*eT*kT*dG*d[5mC]*d[5mC]*dT*dA*dG*dA*d[5mC]*dT*d[5mC]*kT*kG*eG; antisense) [compound 548128] |  | 1100 | 14 | 29 | 49 | 66 |  |  | 55 |  |  |  |  | 
6 | 547946 (eG*eA*kA*d[5mC]*dT*dT*dG*dG*dT*dG*dT*dG*d[5mC]*k[5mC]*kA*e[5mC]; antisense) [compound 547946] | 81 | 500 | 0 | 47 | 74 |  |  |  |  |  |  |  |  | 
7 | 547942 (eG*eG*kT*dG*dT*dG*d[5mC]*d[5mC]*dA*d[5mC]*dT*dT*dT*k[5mC]*kA*eG; antisense) [compound 547942] | 85 | 300 | 25 | 51 | 91 |  |  |  |  |  |  |  |  | 
8 | 548410 (antisense eA*eG*kT*dA*dT*d[5mC]*dA*d[5mC]*dT*dG*dT*dA*d[5mC]*kT*kA*eG) [compound 548410] |  | 200 | 31 | 58 | 85 | 82 |  |  |  | 85 |  |  |  | 
9 | 548424 (antisense e[5mC]*eA*kG*dT*dA*dT*d[5mC]*dA*d[5mC]*dT*dG*dT*d[5mC]*k[5mC]*kT*eA) [compound 548424] |  | 300 | 17 | 67 | 86 | 72 |  |  |  | 90 |  |  |  | 
10 | 548043 (eA*eT*kT*dT*dG*dT*dG*dA*dG*dA*dA*dA*dG*kG*kT*eG; antisense) [compound 548043] |  | 300 | 14 | 60 | 90 | 92 |  | 76 |  |  |  |  |  | 
11 | 548667 (antisense eT*eG*kG*d[5mC]*dA*dA*dG*d[5mC]*dT*dA*d[5mC]*d[5mC]*dT*kT*k[5mC]*eT) [compound 548667] |  | 700 | 0 | 37 | 73 | 86 |  |  |  |  | 51 |  |  | 
12 | 547997 (antisense eT*eT*kG*dT*dG*dT*d[5mC]*d[5mC]*d[5mC]*dA*dT*dA*d[5mC]*kG*k[5mC]*eA) [compound 547997] |  | 200 | 39 | 68 |  | 82 |  | 89 |  |  |  |  |  | 
13 | 548180 (eT*e[5mC]*kA*dT*dG*dG*dA*dG*dA*dT*d[5mC]*dT*d[5mC]*kA*kG*eT; antisense) [compound 548180] |  | 400 | 11 | 59 | 71 | 88 | 79 |  |  |  |  |  |  | 
14 | 547862 (antisense eG*eA*k[5mC]*dT*d[5mC]*d[5mC]*dT*d[5mC]*dT*d[5mC]*dA*dT*dA*kT*k[5mC]*eA) [compound 547862] |  | 300 | 26 | 71 | 69 |  |  |  |  |  |  | 22 | 88 | 
15 | 548070 (e[5mC]*e[5mC]*k[5mC]*dA*dA*d[5mC]*dA*dG*dT*dT*dG*dG*dT*kA*kT*eA; antisense) [compound 548070] |  | 1100 | 26 | 35 | 48 | 63 |  | 85 |  |  |  |  |  | 
16 | 548655 (antisense e[5mC]*e[5mC]*k[5mC]*dG*dA*dG*dG*dT*d[5mC]*dA*d[5mC]*dA*dT*kA*kA*eT) [compound 548655] |  | > 3000 | 0 | 0 | 8 | 33 |  |  |  |  | 56 |  |  | 
17 | 548170 (eA*eG*kT*dT*dG*d[5mC]*dG*dA*d[5mC]*d[5mC]*dT*d[5mC]*dG*k[5mC]*kA*eT; antisense) [compound 548170] |  | 2000 | 0 | 8 | 26 | 65 | 68 |  |  |  |  |  |  | 
18 | 547979 (antisense eG*eT*k[5mC]*dT*d[5mC]*dT*dT*dG*dG*d[5mC]*dA*dA*dA*k[5mC]*kA*eT) [compound 547979] | 77 |  | 56 | 58 | 94 | 97 |  |  |  |  |  |  |  | 
19 | 548004 (eA*eG*kT*dA*dA*d[5mC]*d[5mC]*dA*dG*dA*dG*d[5mC]*dT*k[5mC]*k[5mC]*e[5mC]; antisense) [compound 548004] |  | 300 | 24 | 47 | 80 | 92 |  | 80 |  |  |  |  |  | 
20 | 548558 (antisense eA*eA*k[5mC]*dA*dT*dT*dG*dT*dG*dT*dA*dG*d[5mC]*kT*kG*e[5mC]) [compound 548558] |  |  | 53 | 61 | 78 | 95 |  |  |  |  |  |  |  | 75

Reference: patent US11840686B2, “Modulation of prekallikrein (PKK) expression” (Ionis Pharmaceuticals, Inc., priority 2013, dated 2023)
